In data set [1] the test system is lymphocytic Leukemia P-388. The data set is described as follows: Anti-tumour activity against lymphocytic Leukemia P-388 in mice. Type of data set: in vivo, mouse, female of CDF strain. The conditions noted are these: for (ILSmax)c: (ILSmax of test compound)/(ILSmax of mitomycin C), ILS=(T-C)/C×100; for (TI)c: (TI of test compound)/(TI of mitomycin C), TI = OPD/dose which results in ILS30; for ED (optimal dose, highest survival) / ED (30% increase of life-span): Mus musculus, P388, ip, i.p. 24 h after implantation; for ED (optimal dose, highest survival): dose resulting in the highest survival ratio, 30 days, read-out: OPD; for ED (30% increase of life-span): read-out: Dose needed to give ILS30. The source says: Also, their therapeutic indexes, expressed by the formula:
TI=(OPD)/(dose which results in ILS30),
against lymphocytic Leukemia P-388 and the maximum increased life spans (ILSmax), defined by the formula: […]
(§1) As used herein, the term "LD50 " denotes the acute toxicity. The term "ED50 " denotes the administered amount needed for reducing the volume of Sarcoma 180 solid tumours in animals to 50% of the corresponding tumour volume in control (untreated) animals. The term "WBC4000 " denotes the minimum dose of the drug needed to reduce the number of peripheral leucocytes to 4000/mm^3. A greater TI value results in a broader tolerance to the drug, which is advantageous for higher anti-tumour activity and decreased toxicity. The term "T" used herein denotes the average survival days of the test animals administered with the test compound. The term "C" denotes the average survival days of the control (untreated) animals. The term "OPD" denotes the dose of the drug resulting in the highest survival ratio. The term "ILS30 " denotes a 30% increase of life-span.
The experiment was carried out in the following manner. 1×10^6 lymphocytic Leukemia P-388 tumour cells were abdominally implanted into each mouse of a group consisting of 5 mice (body weight about 22 g; female of CDF strain). 24 hours after implantation, a physiological saline solution (0.2 ml) containing the test compound with or without addition of Tween 80 was abdominally given to the test animal.
Table 7 indicates anti-tumour activities of selected Compounds (I) against lyphocytic Leukemia P-388.

Another data set relates to Sarcoma 180 solid tumour. The data set is described as follows: ED50 against Sarcoma 180 solid tumour implanted in mice. Format: in vivo, male mouse (ddy strain). The conditions noted are these: for (CI)c: (CI of test compound)/(CI of mitomycin C), CI = LD50/ED50; for ED50: Mus musculus, Sarcoma-180, iv, 168 h, i.v. (tail vein) 24 h after implantation, tumour volume at 7 days, dose for T/C of 0.5.
Excerpt: With regard to the so-called chemotherapeutic index viz. the CI value against sarcoma 180 solid tumour, expressed by the formula: […]
as §1
the term (CI)c denotes (CI of the test compound)/(CI of mitomycin C), and
5×10^6 sarcoma 180 solid tumor cells were abdominally implanted into ddy mice. 7 days after this, ascites cells were sampled. The cells were washed once with a sterilized physiological saline and were used to prepare a cell suspension containing 5×10^7 cells per ml of a sterilized physiological saline. On each occasion, 0.1 ml of the cell suspension was subcutaneously implanted under the skin of the right armpit of a male mouse (ddy strain; body weight 20±2 g). The test compound which was dissolved in a physiological saline with or without addition of Tween 80 was injected into the tail vein of each animal of a group consisting of 5 mice at a dose of 0.1-0.2 ml 24 hours after the implantation of the tumor cells.
The anti-tumor activity was determined in the following manner:
7 days after the implantation, the major axis (a) and the minor axis (b) of the tumour were measured to calculate a value of (a×b^2)/2 which corresponds to the volume of the tumour. The antitumour activity was expressed by the ratio of the volume of the tumour (T) of the group of animals administered with the test compound to the corresponding volume of tumours (C) of the untreated animals.
On graph paper, T/C was plotted on the ordinate using an arithmetic scale and the administered amount of test compound was plotted on the abscissa using a logarithmic scale. The relationship between the dose and T/C was shown by a straight line determined by the method of least squares, from which ED50 viz. a dose corresponding to T/C of 0.5 was obtained.

Data set [2] in a line: LD50 acute toxicity, ddy mice, single abdominal injection. To be noted: mouse, in vivo, ip, 5 ddy mice, 14 days observation, Behrens-Koerber's method.
Excerpt: as §1
LD50, ED50 and WBC4000 were respectively determined as follows:
Each animal of the test group, consisting of 5 ddy mice, was administered once with a test compound by abdominal injection. […] To determine the LD50 value, Behrens-Koerber's method was applied.

Broadly, the ED50 is the dose at which the effect has come halfway, by size or by number of responders. Lower therefore signals an effect at a small dose. As a reminder, the LD50 is the dose at which mortality reaches 50%.

Regarding `CNC(=O)SCCNC1=C(C)C(=O)C2=C(C1=O)[C@@H](COC(N)=O)[C@@]1(OC)[C@H]3N[C@H]3CN21` [Compound 1, 7-N--(2-methylaminocarbonylthioethyl)mitomycin C], in data set [1], the “(ILSmax)c” value is recorded as 1.44; the “(TI)c” value is on record as 1.33; the ED (optimal dose, highest survival) was 25 mg/kg; the ED (30% increase of life-span) came out at 0.78 mg/kg. Also, in the data set on Sarcoma 180 solid tumour, the “(CI)c” value is over 1.39 and the ED50 stood at 25.8 mg/kg. Besides, in data set [2], the LD50 at 336 h is over 100 mg/kg.
Regarding `CCN(CC)C(=O)SCCNC1=C(C)C(=O)C2=C(C1=O)[C@@H](COC(N)=O)[C@@]1(OC)[C@H]3N[C@H]3CN21` [Compound 4, 7-N--(2-diethylaminocarbonylthioethyl)mitomycin C], in data set [1], the “(ILSmax)c” value is on record as over 1.21; the “(TI)c” value came out at 1.18; the ED (optimal dose, highest survival) is 25 mg/kg; the ED (30% increase of life-span) stood at 2.02 mg/kg. In the data set on Sarcoma 180 solid tumour, the “(CI)c” value is given as 1.64 and the ED50 amounted to 13.3 mg/kg. Besides, the LD50 at 336 h in data set [2] was determined as 45 mg/kg.
Consider `CO[C@@]12[C@H](COC(N)=O)C3=C(C(=O)C(C)=C(NCCSC(=O)NC(C)(C)C)C3=O)N1C[C@@H]1N[C@@H]12` [Compound 5, 7-N--(2-t-butylaminocarbonylthioethyl)mitomicin C], for which, in data set [1], the “(ILSmax)c” value is given as over 1.17; the “(TI)c” value is 1.80; the ED (optimal dose, highest survival) amounted to 25 mg/kg; the ED (30% increase of life-span) came out at 1.32 mg/kg. Also, in the data set on Sarcoma 180 solid tumour, the “(CI)c” value amounted to 1.22 and the ED50 came to 8.8 mg/kg. The same compound returned an LD50 at 336 h in data set [2] of 30 mg/kg.
Turning to `COC(=O)[C@@H]1CCCN1C(=O)SCCNC1=C(C)C(=O)C2=C(C1=O)[C@@H](COC(N)=O)[C@@]1(OC)[C@H]3N[C@H]3CN21` [Compound 6, 7-N--[2-((S)--2-methoxycarbonylpyrrolidino)carbonylthioethyl]mitomycin C], in data set [1], the “(ILSmax)c” value is over 1.82; the “(TI)c” value came to 9.09; the ED (optimal dose, highest survival) came out at 100 mg/kg; the ED (30% increase of life-span) came out at 1.1 mg/kg. Moreover, in the data set on Sarcoma 180 solid tumour, the “(CI)c” value is given as 1.77 and the ED50 turned out to be 10.1 mg/kg. The LD50 at 336 h in data set [2] is over 50 mg/kg.
With `CO[C@@]12[C@H](COC(N)=O)C3=C(C(=O)C(C)=C(NCCSC(=O)NC(C)C)C3=O)N1C[C@@H]1N[C@@H]12` [Compound 7, 7-N--(2-isopropylaminocarbonylthioethyl)mitomycin C], in data set [1], the “(ILSmax)c” value is reported as over 1.76; the “(TI)c” value is 2.48; the ED (optimal dose, highest survival) was 12.5 mg/kg; the ED (30% increase of life-span) stood at 0.77 mg/kg. For the same compound, in the data set with Sarcoma 180 solid tumour, the “(CI)c” value is 2.29 and the ED50 came to 7 mg/kg. In data set [2], this compound came in with an LD50 at 336 h of 45 mg/kg.
As for `COC(=O)[C@@H](NC(=O)SCCNC1=C(C)C(=O)C2=C(C1=O)[C@@H](COC(N)=O)[C@@]1(OC)[C@H]3N[C@H]3CN21)C(C)C` [Compound 9, 7-N--[2-((S)--1-methoxycarbonyl-2-methylpropyl)-aminocarbonylthioethyl]mitomycin C], in data set [1], the “(ILSmax)c” value is listed as over 1.54; the “(TI)c” value worked out at 0.92; the ED (optimal dose, highest survival) was 12.5 mg/kg; the ED (30% increase of life-span) was 0.84 mg/kg. In addition, in the data set on Sarcoma 180 solid tumour, the “(CI)c” value came to 0.81 and the ED50 amounted to 15.9 mg/kg. In data set [2], this compound gave an LD50 at 336 h of 37.5 mg/kg.
Consider `CCC(CC)NC(=O)SCCNC1=C(C)C(=O)C2=C(C1=O)[C@@H](COC(N)=O)[C@@]1(OC)[C@H]3N[C@H]3CN21` [Compound 11, 7-N--[2-(1-ethylpropyl)aminocarbonylthioethyl]mitomycin C], for which, in data set [1], the “(ILSmax)c” value was over 1.47; the “(TI)c” value is recorded as 1.86; the ED (optimal dose, highest survival) amounted to 25 mg/kg; the ED (30% increase of life-span) stood at 1.04 mg/kg. For the same compound, in the data set with Sarcoma 180 solid tumour, the “(CI)c” value is reported as 1.40 and it took a dose of 11.1 mg/kg to reach the 50% effect level (ED50). Moreover, the LD50 at 336 h in data set [2] is 45 mg/kg.
For `CO[C@@]12[C@H](COC(N)=O)C3=C(C(=O)C(C)=C(NCCSC(=O)NC4CCN(Cc5ccccc5)CC4)C3=O)N1C[C@@H]1N[C@@H]12` [Compound 12, 7-N--[2-(1-benzylpiperidine-4-yl)aminocarbonylthioethyl]mitomycin C], in data set [1], the “(ILSmax)c” value was over 1.47; the “(TI)c” value is over 1.10; the ED (optimal dose, highest survival) amounted to 12.5 mg/kg; the ED (30% increase of life-span) is under 0.78 mg/kg. Besides, in the data set with Sarcoma 180 solid tumour, the “(CI)c” value is 1.61 and the ED50 is 8.1 mg/kg. In data set [2], this compound displayed an LD50 at 336 h of 37.5 mg/kg.
As for `CO[C@@]12[C@H](COC(N)=O)C3=C(C(=O)C(C)=C(NCCSC(=O)NC(COCc4ccccc4)C(C)C)C3=O)N1C[C@@H]1N[C@@H]12` (stereo partly drawn) [Compound 13], in data set [1], the “(ILSmax)c” value is given as over 2.57; the “(TI)c” value is 1.96; the ED (optimal dose, highest survival) turned out to be 7.5 mg/kg; the ED (30% increase of life-span) worked out at 0.33 mg/kg. For the same compound, in the data set with Sarcoma 180 solid tumour, the “(CI)c” value was 2.01 and the ED50 was 4.5 mg/kg. This compound returned a 50% lethal dose (LD50) at 336 h in data set [2] of 26.3 mg/kg.
`CO[C@@]12[C@H](COC(N)=O)C3=C(C(=O)C(C)=C(NCCSC(=O)N4CCC(O)CC4)C3=O)N1C[C@@H]1N[C@@H]12` [Compound 43, 7-N--[2-(4-hydroxypiperidino)carbonylthioethyl]mitomycin C]: in the data set with Sarcoma 180 solid tumour, the “(CI)c” value is 2.17 and the median effective dose (ED50) is 9.15 mg/kg. Further, the LD50 at 336 h in data set [2] was 52.5 mg/kg.
The corresponding values for `COC(=O)[C@@H]1CC(O)CN1C(=O)SCCNC1=C(C)C(=O)C2=C(C1=O)[C@@H](COC(N)=O)[C@@]1(OC)[C@H]3N[C@H]3CN21` (stereo partly drawn) [Compound 44, 7-N--[2-((S)--2-methoxycarbonyl-(SR)-4-hydroxypyrrolidino)carbonylthioethyl]mitomycin C] are over 1.85, 27.5 mg/kg and over 100 mg/kg.
The corresponding values for `CO[C@@]12[C@H](COC(N)=O)C3=C(C(=O)C(C)=C(NCCSC(=O)N4CCC[C@H]4C(=O)Nc4ccc(O)cc4)C3=O)N1C[C@@H]1N[C@@H]12` [Compound 45, 7-N--{2-[(S)--2-(4-hydroxyanilino)carbonylpiperidino]carbonylthioethyl}mitomycin C] are over 0.51, 89.1 mg/kg and over 100 mg/kg.
Turning to `CO[C@@]12[C@H](COC(N)=O)C3=C(C(=O)C(C)=C(NCCSC(=O)NC(C(C)C)C(C)C)C3=O)N1C[C@@H]1N[C@@H]12` [Compound 46, 7-N--[2-(1-isopropyl-2-methylpropyl)aminocarbonylthioethyl]mitomycin C], in the data set with Sarcoma 180 solid tumour, the “(CI)c” value was 1.27 and the ED50 was 12.5 mg/kg. Besides, in data set [2], the LD50 at 336 h came out at 37.5 mg/kg.
The corresponding values for `CO[C@@]12[C@H](COC(N)=O)C3=C(C(=O)C(C)=C(NCCSC(=O)NC(CO)C(C)C)C3=O)N1C[C@@H]1N[C@@H]12` (stereo partly drawn) [Compound 48, 7-N--[2-(1-hydroxymethyl-2-methylpropyl)aminocarbonylthioethyl]mitomycin C] are 1.39, 14.3 mg/kg and 45 mg/kg.
For `CO[C@@]12[C@H](COC(N)=O)C3=C(C(=O)C(C)=C(NCCSC(=O)NCCc4ccccn4)C3=O)N1C[C@@H]1N[C@@H]12` [Compound 49, 7-N--[2-{2-(2-pyridyl)ethyl}aminocarbonylthioethyl]mitomycin C] the same measures were 1.57, 22.8 mg/kg and 75 mg/kg.

The record behind these values is patent US4863935A, “Mitomycin compounds having useful anti-tumor activity” (priority 1986, dated 1989).
